# Measurements from patent US20230149378A1, “Aminothiolester compounds or pharmaceutically acceptable salts thereof, for use for the treatment of cancer” (ADVANCED BIODESIGN, priority 2015, published 2023).
# pIC50: −log10 of the molar value.
# How the values were obtained:
# HL-60 cells [1] = experiment: Measurement of GSH level (GSH-Glo); format: cell-based, human; conditions: HL-60 cells treated with 2.5 mM NAC; FIG. 6(B)
# Experimental: (§1) Cells were seeded in 96-well black walled plate (5×10^4 cells/mL) and incubated overnight for attachment. The cells were treated either with vehicle, DMSO, BCNU 100 μM, S-methyl 4-(dimethylamino)-4-methylpent-2-ynethioate 20 μM, for 24 hours. The total glutathione was measured according to the instructions of the kit (GSH-Glo™, Promega) and results were obtained for 25 000 cells.
# [2] = Aruoma et al 1989; cited from earlier work
# [3] = Aruoma et al 1989; cited from earlier work; remark: listed apart in the source
# [4] = system: BEAS-2B (Human bronchial epithelial cells); experiment: Alamar blue growth inhibition, normal human primary cells; format: cell-based; conditions: 48 hours
# Experimental: (§2) Cells were seeded into 96-well cell culture plates at concentrations required to ensure approximately 80% confluence in control (untreated cells) at the end of experiment (0.5×10^4-5×10^4 cell/well). The sensitivity towards S-methyl 4-(dimethylamino)-4-methylpent-2-ynethioate was determined using different concentrations of the drug (from 0.01 to 100 μM). After 48 hours, the growth-inhibitory effect of the drug was analyzed using Alamar blue, according to manufactures instructions. The Alamar Blue assay was used based on earlier observations: similar results were found with Alamar blue, tetrazolium reduction (XTT assay). To ensure good data quality and to minimize impact of pipetting errors, each particular drug concentration was assessed based on mean fluorescence intensity from 8 separate wells. The drug response was quantified by the half maximal inhibitory concentration (IC50) for each particular cell line, and determined by non-linear regression analysis of log-dose/response curves. Cut-off value for resistance to S-methyl 4-(dimethylamino)-4-methylpent-2-ynethioate was determined statistically (>2 S.D. above the IC50 geometric mean). The in-vitro threshold value for hypersensitivity to the drug has been defined as <IC50 geometric mean.
# (§3) In addition, to control the selectivity of the S-methyl 4-(dimethylamino)-4-methylpent-2-ynethioate toward cancer cells, the compound according to the invention was also tested on normal cells by using the same method as the one described above.
# [5] = system: HPF (Human Pulmonary fibroblasts); experiment: as above; format: cell-based; conditions: Pulmonary fibroblast, 48 hours
# Experimental: as §2, §3
# [6] = system: NHEM (Normal Human epidermal melanocytes); experiment: as above; format: cell-based; conditions: Melanocyte, 48 hours
# Experimental: as §2, §3
# [7] = system: hMCSs-BM (Human mesenchymal stem cells from bone marrow); experiment: as above; format: cell-based; conditions: 48 hours
# Experimental: as §2, §3
# [8] = system: huvec (Human umbilical vein endothelial cells); experiment: as above; format: cell-based; conditions: 48 hours
# Experimental: as §2, §3
# [9] = system: DU145 (prostatic cancer line); experiment: Alamar blue growth inhibition, cell line DU145; format: cell-based; conditions: Homo sapiens, DU-145
# Experimental: as §2
# (§4) In addition, other compounds according to the invention were tested by following the above mentioned material and method on the cell line DU145 (prostatic cancer line) and the cell line HL60 (leukemia) mentioned in Table 2.
# HL-60 (leukemia) = experiment: Alamar blue growth inhibition, cell line HL60; format: cell-based; conditions: Homo sapiens
# Experimental: as §2, §4
# normal cells = experiment: Selectivity control on normal cells; format: cell-based, human; conditions: same method as cancer cells
# Experimental: as §2, with “mean. […]” for “mean.”
# [10] = system: cancer cell lines which overproduce H2O2; experiment: Viability assay (resazurin, XTT or MTT) on various cancer cell lines; format: cell-based, human; conditions: FIG. 1
# Experimental: A panel of 52 human tumor cells representing 10 tissue types has been selected to cover a broad set of different oncogenes and according to their response to different standard chemotherapeutics. […]
# as §2, with “The Alamar Blue assay was used based on earlier observations: similar results were found with Alamar blue, tetrazolium reduction (XTT assay).” left out, “The in-vitro threshold value for hypersensitivity to the drug has been defined as <IC50 geometric mean.” left out
# HL60 cancers cells = experiment: Measurement of H2O2 production (Total ROS/superoxide detection kit); format: cell-based, human; conditions: FIG. 6(A)
# Experimental: Intracellular H2O2 production in live cells was measured using Total ROS/superoxide detection kit (Enzo life science), following the manufacturer's instructions. The assay uses specific H2O2/RNS probes that upon reaction with H2O2 and RNS species were oxidized rapidly to highly fluorescent compounds. Fluorescence intensity is proportional to the total H2O2/RNS levels within the sample. […] The day before the analysis, cells were seeded in 96-well black/clear bottom plates at a density of 2×10^4 in culture media according to cell suppliers instructions, supplemented with FBS (10% v/v), 10 units of penicillin/mi and […] of streptomycin. Cells were kept at 37° C. in a humid atmosphere of 95% air: 5% CO2 overnight. On the day of the analysis, cells media was replaced by 100 μL of phenol free-media supplemented as above, without any treatment, with S-methyl 4-(dimethylamino)-4-methylpent-2-ynethioate for 6 hours, vehicle HEPES for 6 hours, or with NAC for 20 min. […] Several wells were left without cells for the background fluorescence control measurements. Plates were read using fluorescence microplate reader (ex=560 nm, Em=600). Data were expressed as the change in arbitrary fluorescence units produced from equal amounts of cells and normalized to total protein input.
# HL-60 cells [11] = experiment: Viability of HL-60 cells with NAC or GSH-MEE (induction of resistance); format: cell-based
# Experimental: To revert S-methyl 4-(dimethylamino)-4-methylpent-2-ynethioate-induced cell death, drug sensitive cells HL-60 were exposed to S-methyl 4-(dimethylamino)-4-methylpent-2-ynethioate (10 μM) in the presence of the reduced glutathione analog Glutathione Monoethyl Ester (GSH-MEE) at concentrations 10 mM or S-methyl 4-(dimethylamino)-4-methylpent ynethioate in combination. HL-60 were seeded, into 96-wells plate, at a concentration of 5×10^4 cells/well in 100 μL of complemented medium supplemented with Glutathione Monoethyl Ester (GSH-MEE) 10 mM. After 90 minutes incubation, cells were washed with PBS and cells were incubated using different concentrations of the drug (from 0.01 to 100 μM). After 24 h and 48 h cell viability was measure using the Rezasurin assay as described above.
# Colo357 cells [12] = experiment: Viability of Colo357 cells treated with BCNU; format: cell-based; conditions: Colo357 cells treated with 100 μM carmustine (BCNU); FIG. 8(B)
# [13] = system: sensitive cells (HL-60, NT2/D1); experiment: MDA-adducts ELISA, sensitive cells; format: cell-based, human; conditions: 5 or 10 μmol·L^−1 during 24 hours, FIG. 10
# Experimental: (§5) The formation of HNE-adducts and MDA-adducts was quantified with the Oxiselect HNE Adduct Elisa kit (Cell Biolabs, San Diego, Calif.) and the OxiSelect MDA Adduct ELISA Kit (Cell Biolabs), respectively. Briefly, after a treatment with S-methyl 4-(dimethylamino)-4-methylpent-2-ynethioate during 24 hours, cells were lysed by sonication in reducing SDS Sample Buffer. Homogenates were diluted to 10 μg protein/mL and adsorbed in 96-well protein binding plates by incubation at 37° C. for at least 2 hours. Wells were washed twice with PBS and incubated for an additional 2 hours at room temperature on an orbital shaker. Following three washes in PBS, 100 μL of anti-HNE antibody or anti-MDA antibody were added to the wells and incubated for 1 hour at room temperature. Subsequently, goat anti-rabbit secondary antibody-HRP conjugate (diluted 1/1000 with the assay diluent) was added and incubation continued for 1 hour. Wells were washed five times in PBS and HRP-substrate was added. Reaction was stopped with an acidic solution, and absorbance read on a microplate reader at 450 nm. The level of HNE-adducts and of MDA-adducts was determined by comparison with a standard curve prepared from HNE-BSA and MDA-BSA standards supplied by the manufacturer. […]
# resistant cells (MSC) [14] = experiment: MDA-adducts ELISA, resistant cells; format: cell-based, human; conditions: 5 or 10 μmol·L^−1 during 24 hours, FIG. 10
# Experimental: as §5
# [15] = system: sensitive cells (HL-60, NT2/D1); experiment: HNE-adducts ELISA, sensitive cells; format: cell-based, human; conditions: 5 or 10 μmol·L^−1 during 24 hours, FIG. 10
# Experimental: as §5
# resistant cells (MSC) [16] = experiment: HNE-adducts ELISA, resistant cells; format: cell-based, human; conditions: 5 or 10 μmol·L^−1 during 24 hours, FIG. 10
# Experimental: as §5
# Colo357 cells [17] = experiment: Measurement of GSH level (GSH-Glo); format: cell-based; conditions: 100 μM, FIG. 8(A)
# Experimental: as §1
smiles,measurement,setting,value
"CC(=O)N[C@@H](CS)C(=O)O [NAC, N-acetyl-L-cysteine]",amount of GSH level,HL-60 cells [1],significantly increased
same,"rate constant, scavenging of hydroxy radicals",[2],"1.36×10^10 M^−1,s^−1"
same,"rate constant, reaction with hydrogen peroxide",[3],"0.38 M^−1, s^−1"
CSC(=O)C#CC(C)(C)N(C)C [S-methyl 4-(dimethylamino)-4-methylpent-2-ynethioate],pIC50,[4],< 4.30
same,pIC50,[5],< 4.00
same,pIC50,[6],< 4.00
same,pIC50,[7],< 4.30
same,pIC50,[8],< 4.30
same,pIC50,[9],5.14
same,pIC50,HL-60 (leukemia),5.12
same,effect on normal cells,normal cells,no effect
same,efficacy in cancer cell lines (viability assay),[10],effective
same,H2O2 activity level in Relative Fluorescence Unit (RFU),"HL60 cancers cells; HL60, 5 μM for 24 hours",increased
same,H2O2 activity level in Relative Fluorescence Unit (RFU),"HL60 cancers cells; HL60, treatment in addition with 2.5 mM N-acetyl-Cysteine (NAC)",no H2O2 increase
same,viability of HL-60 cells,"HL-60 cells [11]; 5, 10 μmol·L-1 and 2.5 mM NAC, FIG. 6(C)",inhibition of efficacy
same,cytotoxic effect on HL-60 cells,"HL-60 cells [11]; after pre-treatment of 10 mM GSH-MEE, FIG. 7",no more effective
same,decrease of viability,Colo357 cells [12],50%
same,MDA-adducts level,[13],above 100 ng per μg of total protein
same,MDA-adducts level,resistant cells (MSC) [14],< 100 ng per μg of total protein
same,HNE-adducts level,[15],> 1 μg per μg of total protein
same,HNE-adducts level,resistant cells (MSC) [16],< 1 μg per μg of total protein
CSC(=O)C#CC(C)(C)N(C)Cc1ccccc1 [S-methyl 4-[benzyl(methyl)amino]-4-methylpent-2-ynethioate],pIC50,[9],5.85
same,pIC50,HL-60 (leukemia),4.98
CSC(=O)C#CC(C)(C)N1CCOCC1 [S-methyl 4-methyl-4-(morpholin-4-yl)pent-2-ynethioate],pIC50,[9],5.03
same,pIC50,HL-60 (leukemia),4.52
CSC(=O)C#CC(C)(C)N1CCCCC1 [S-methyl 4-methyl-4-(piperidin-1-yl)pent-2-ynethioate],pIC50,[9],4.66
same,pIC50,HL-60 (leukemia),5.14
CSC(=O)C#CC(C)(C)N(C)c1ccccc1 [S-methyl 4-methyl-4-[methyl(phenyl)amino]pent-2-ynethioate],pIC50,[9],4.90
same,pIC50,HL-60 (leukemia),4.61
O=NN(CCCl)C(=O)NCCCl [carmustine],decrease of the GSH level,Colo357 cells [17],50%
